Laboratory results from patent publication US11058756B2, “Compositions and methods of treating autoimmune disease by reducing enterococcus” (YALE UNIVERSITY, priority 2017, dated 2021).
Entries after “also recorded” stand apart in the source; their conditions may differ.

Tests used:
[1] = tested on: MLN Th17 cells; experiment: Vancomycin in vitro assay on MLN cell cultures (Th17 frequency by FACS); assay type: cell-based, mouse; settings: vancomycin 16 μg/mL, anti-CD3/anti-CD28, 3 days (FIG. 19D legend)
Experimental: […] In vitro samples were stained as described above. All samples were collected using an LSR II flow cytometer (Becton Dickinson). All flow cytometry data were analyzed by FlowJo version 9.7 (Tree Star).

[2] = tested on: (NZWxBXSB)F1 mice; experiment: Serum ELISAs for anti-dsDNA, anti-RNA, anti-β2GPI IgG, ERV gp70 protein and anti-ERV gp70 immune complexes; assay type: in vivo, mouse
From the text: (§1) Mice were cohoused for 3 to 4 weeks before antibiotic treatment to allow for equilibration of the microbiota. Single antibiotic or broad-spectrum antibiotic administration consisted of metronidazole (1 g/liter; Fisher Scientific), neomycin (1 g/liter; Fisher Scientific), ampicillin (1 g/liter; Sigma) and vancomycin (0.5 g/liter; Acros Organics) in the drinking water for up to 22 weeks or a targeted regiment for 2 weeks and then replaced with regular water for the duration of the experiment. For broad-spectrum antibiotic experiments (vancomycin, ampicillin, metronidazole, and neomycin combined), sweetener (Equal, 4 g/L) was added to both the antibiotics and control water due to the metallic taste of metronidazole. Twenty-four hours after cessation of antibiotic water, mice were administered 1×10^6 CFUs of vancomycin-resistant E. gallinarum via oral gavage, isolated from liver tissue of a vancomycin-treated mouse that continued to show signs of autoimmune disease (high-level resistance was confirmed by vanC gene PCR). E. gallinarum was grown at 37° C. in Gifu Anaerobic Broth (HIMEDIA Laboratories) to early stationary phase under anaerobic conditions (82% N2, 15% CO2, 3% H2 by volume) in an anaerobic chamber and diluted in PBS to 10^7 CFUs.
Serum antibodies specific for dsDNA and b2GPI were determined using standardized ELISAs (anti-dsDNA antibody, Abcam; and, Mouse/Rat Apolipoprotein H Antibody, R&D Systems; respectively). Anti-RNA was determined by ELISA using defined positive controls (Human/Mouse RNA Polymerase II Antibody, R&D systems). Anti-ERV gp70 ICs and ERV gp70 protein were determined by OD450 signal comparisons (Evans et al., 1990, J Virol, 64, 6176-6183). For anti-dsDNA ELISAs, DNA-BIND™ (Corning) plates were coated with 100 μg/ml salmon sperm DNA (Fisher Scientific) and blocked in 0.1M PBS, 3.0% BSA, 5.0% FBS. The serum was diluted 1:1000 for the assay and incubated for 1 hour at 37° C. Wells were washed and incubated for 1 hour at 37° C. with rabbit anti-mouse IgG (Fisher Scientific) conjugated to HRP and developed with TMB substrate solution. 2M sulfuric acid (Sigma) solution was used to stop development. The concentration of anti-dsDNA was determined by reading the absorbance at 450 nm/570 nm reference.
For anti-RNA ELISAs, DNA-BIND™ (Corning) plates were coated with […] yeast RNA (Ambion) and blocked in 0.1M PBS, 0.05% Tween-20, 5.0% FBS. The serum was diluted 1:1000 for the assay and incubated for 1 hour at 37° C. Wells were washed and incubated for 1 hour at 37° C. with rabbit anti-mouse IgG (Fisher Scientific) conjugated to HRP and developed with TMB substrate solution. 2M sulfuric acid (Sigma) solution was used to stop development. The concentration of anti-RNA IgG was determined by reading the absorbance at 450 nm/570 nm reference.
For anti-b2GPI ELISAs, Corning® 96-well EIA/RIA easy Wash™ clear flat-bottom polystyrene high-bind microplates were coated with […] recombinant b2GPI/ApoH (R&D Systems) and blocked in Pierce Protein-Free (PBS) Blocking Buffer (Thermo Scientific). The serum was diluted 1:100 for the assay and incubated at room temperature for 2 hours on a shaker. Wells were washed and incubated while shaking for 30 minutes at room temperature with goat anti-mouse IgG (Fisher Scientific) conjugated to HRP and developed with TMB substrate solution. 2M sulfuric acid (Sigma) solution was used to stop development. The concentration of anti-b2GPI was determined by reading the absorbance at 450 nm/650 nm reference. […]

[3] = tested on: Th17 and Tfh cells; experiment: Th17/Tfh cell frequencies (FACS) and splenocyte cytokines (LEGENDplex) after antibiotic treatment in vivo; design: species or system mouse
From the text: as §1
Cytokine levels were determined from culture supernatants using LEGENDplex™ (BioLegend), a bead-based immunoassay. The preformed mouse T helper cytokine panel was used. […]
For direct ex vivo intracellular cytokine detection, cells isolated from small intestinal lamina propria, MLN or spleen were immediately treated with GolgiStop (BD Bioscience) and surface-stained in FACS buffer (PBS, 2% bovine serum albumin, 0.2 mg of sodium azide, 2 mM EDTA) for 30 minutes in the dark at room temperature with fluorescently conjugated antibodies specific for CD3, CD4, CD11b, CD11c, CD44, CD62L, CD19, CD45, CD45R (B220), CXCR5, GITR, IL-17, IFN-g, Ly6C, NK1.1, PDCA-1, PD-1 and PSGL-1. […] Cell viability was assessed with Zombie NIR Fixable Viability Kit (BioLegend).

[4] = tested on: ERV gp70; experiment: Liver ERV gp70 expression by RT-qPCR after oral antibiotics; assay type: in vivo, mouse; settings: oral vancomycin; FIG. 7
From the text: as §1, with “E. gallinarum was grown at 37° C. in Gifu Anaerobic Broth (HIMEDIA Laboratories) to early stationary phase under anaerobic conditions (82% N2, 15% CO2, 3% H2 by volume) in an anaerobic chamber and diluted in PBS to 10^7 CFUs.” left out
RNA was isolated from hepatocytes, dendritic cells or ileum using the RNAeasy plus mini kit (Qiagen) according to the manufacturer's instructions. cDNA was generated using the QuantiTect Reverse Transcription Kit (Qiagen). […]

[5] = tested on: E. gallinarum; experiment: Assessment of bacterial translocation and tissue burden (anaerobic tissue cultures, CFU); assay type: in vivo, mouse; settings: FIG. 1K-1N
From the text: Mice were cohoused for 3 to 4 weeks before antibiotic treatment to allow for equilibration of the microbiota. Single antibiotic or broad-spectrum antibiotic administration consisted of metronidazole (1 g/liter; Fisher Scientific), neomycin (1 g/liter; Fisher Scientific), ampicillin (1 g/liter; Sigma) and vancomycin (0.5 g/liter; Acros Organics) in the drinking water for up to 22 weeks or a targeted regiment for 2 weeks and then replaced with regular water for the duration of the experiment. For broad-spectrum antibiotic experiments (vancomycin, ampicillin, metronidazole, and neomycin combined), sweetener (Equal, 4 g/L) was added to both the antibiotics and control water due to the metallic taste of metronidazole. […] E. gallinarum was grown at 37° C. in Gifu Anaerobic Broth (HIMEDIA Laboratories) to early stationary phase under anaerobic conditions (82% N2, 15% CO2, 3% H2 by volume) in an anaerobic chamber and diluted in PBS to 10^7 CFUs.
14-, 16- and 18-week-old mice underwent sterile laparotomy and nose, mouth, small intestine (luminal and adherent fractions), mesenteric veins, mesenteric lymph nodes (MLN), liver and spleen were aseptically collected in BBL Mycoflask Thioglycollate (Fluid) Prepared Media (BD Diagnostic Systems) and incubated for 72 hours in anaerobic conditions at 37° C. Gifu Media Agar plates were streaked with the content from the BBL Mycoflask Thioglycollate and incubated for 48 hours in an anaerobic chamber at 37° C. Colony Formation Units (CFU) were counted and concentration determined per milligram of tissue. Single colonies were grown in Gifu anaerobic media for 48 hours in an anaerobic chamber at 37° C. and aliquots from each sample were collected and centrifuge for 10 minutes at 10000×g. DNA was extracted from bacterial pellets using DNeasy Blood and Tissue kit (Qiagen) and submitted to PCR amplification of the 16S region and Sanger sequencing. In addition, purified DNA was used for eubacterial, Enterococcus genus and Enterococcus gallinarum PCR assays.

CN[C@H](CC(C)C)C(=O)N[C@H]1C(=O)N[C@@H](CC(N)=O)C(=O)N[C@H]2C(=O)N[C@H]3C(=O)N[C@H](C(=O)N[C@H](C(=O)O)c4cc(O)cc(O)c4-c4cc3ccc4O)[C@H](O)c3ccc(c(Cl)c3)Oc3cc2cc(c3O[C@@H]2O[C@H](CO)[C@@H](O)[C@H](O)[C@H]2O[C@H]2C[C@](C)(N)[C@H](O)[C@H](C)O2)Oc2ccc(cc2Cl)[C@H]1O [vancomycin]
direct influence on immune cells in vitro (MLN Th17 cell frequency) [1]: no direct influence | lupus-related autoantibodies (serum anti-dsDNA and anti-RNA IgG) ([2]; single antibiotic in drinking water, 16 weeks of age, FIG. 1B-1C): prevented | anti-β2GPI ([2]; vancomycin 0.5 g/L in drinking water from 6 weeks of age, FIG. 7): suppressed | serum ERV gp70 ([2]; vancomycin 0.5 g/L in drinking water from 6 weeks of age, FIG. 7K): suppressed | anti-ERV gp70 immune complexes (ICs) ([2]; vancomycin 0.5 g/L in drinking water from 6 weeks of age, FIG. 7L): suppressed | Tfh cells ([3]; MLN of (NZWxBXSB)F1 mice treated via drinking water, FIG. 19C): reduced; also recorded: suppresses | Th17 cells ([3]; spleen and MLN of (NZWxBXSB)F1 mice, SFB-negative, treated via drinking water, FIG. 19): reduced; also recorded: suppresses | cytokine signatures (inflammatory cytokines in splenocyte supernatants) ([3]; splenocytes stimulated with anti-CD3/anti-CD28 for 3 days, FIG. 19A): reduced; also recorded: suppresses | hepatic ERV gp70 [4]: suppressed | Translocation (bacterial growth in mesenteric veins, MLN, liver, spleen) ([5]; (NZWxBXSB)F1 mice, antibiotics in drinking water, 16-18 weeks of age): reduced | suppression of growth of E. gallinarum in tissues, VANC compared to NEO-treated animals ([5]; mesenteric veins, MLN, liver, spleen, P=0.0337 and P<0.005): significantly higher
